# In article PMC12372887, “Mechanism and cellular actions of the potent AMPK inhibitor BAY-3827” (Science Advances, 2025):
# Assays:
# Test in all cases: Kinase panel (140 human kinases)
# Assay type in all cases: biochemical
# [1] = molecular target: NEK6 (Homo sapiens, UniProt Q9HC98)
# Protocol: (§1) BAY-3827 and BAY-974 were assayed against a 140-human kinase panel at 0.1 μM and at 1 μM (BAY-3827) concentration in a [γ-^33P] ATP–based radioactive filter binding assay ([31], [65]) setup in duplicates with reported mean remaining kinase percentage activity alongside SD (table S1). Assays were performed at either 5, 20, or 50 μM ATP to be at or below the Michaelis constant for ATP for each enzyme and conducted by the services offered by the International Centre for Kinase Profiling at MRC Protein Phosphorylation and Ubiquitylation Unit, University of Dundee (https://www.kinase-screen.mrc.ac.uk/services/premier-screen).
# [2] = molecular target: MAP4K5 (Homo sapiens, UniProt Q9Y4K4)
# Sequence of MAP4K5 (Q9Y4K4 whole entry): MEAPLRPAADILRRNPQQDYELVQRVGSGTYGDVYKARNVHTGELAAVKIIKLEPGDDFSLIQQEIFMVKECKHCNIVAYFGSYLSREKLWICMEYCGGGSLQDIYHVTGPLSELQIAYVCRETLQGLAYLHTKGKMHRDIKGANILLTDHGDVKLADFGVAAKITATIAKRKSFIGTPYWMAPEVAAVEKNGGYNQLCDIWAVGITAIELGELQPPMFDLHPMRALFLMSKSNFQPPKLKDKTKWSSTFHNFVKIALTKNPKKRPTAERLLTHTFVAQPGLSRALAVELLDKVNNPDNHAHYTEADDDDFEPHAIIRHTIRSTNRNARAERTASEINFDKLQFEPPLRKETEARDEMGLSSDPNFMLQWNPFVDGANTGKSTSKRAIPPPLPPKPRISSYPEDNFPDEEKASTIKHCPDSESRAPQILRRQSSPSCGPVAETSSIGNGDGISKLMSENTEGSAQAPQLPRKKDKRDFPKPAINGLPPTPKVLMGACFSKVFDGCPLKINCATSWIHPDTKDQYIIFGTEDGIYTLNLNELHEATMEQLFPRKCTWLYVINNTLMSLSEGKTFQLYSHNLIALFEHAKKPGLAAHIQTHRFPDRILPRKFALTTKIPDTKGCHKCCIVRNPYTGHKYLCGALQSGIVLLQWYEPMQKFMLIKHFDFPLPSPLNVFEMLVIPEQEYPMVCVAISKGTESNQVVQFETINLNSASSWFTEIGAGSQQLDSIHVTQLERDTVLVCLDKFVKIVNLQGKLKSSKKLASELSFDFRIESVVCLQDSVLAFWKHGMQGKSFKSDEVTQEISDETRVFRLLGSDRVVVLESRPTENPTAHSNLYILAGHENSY
# Protocol: as §1
# [3] = molecular target: JAK3 (Homo sapiens, UniProt P52333)
# Protocol: as §1
# [4] = molecular target: JNK2 (Homo sapiens, UniProt P45984)
# Protocol: as §1
# [5] = molecular target: VEG-FR; details: 0.1 μM
# Protocol: as §1
# [6] = molecular target: ERK5 (Homo sapiens, UniProt Q13164)
# Protocol: as §1
# [7] = molecular target: EPH-B4 (Homo sapiens, UniProt P54760)
# Protocol: as §1
# [8] = molecular target: TTK (Homo sapiens, UniProt P33981)
# Protocol: as §1
# [9] = molecular target: ERK1 (Homo sapiens, UniProt P27361)
# Protocol: as §1
# [10] = molecular target: HIPK2 (Homo sapiens, UniProt Q9H2X6)
# Protocol: as §1
# [11] = molecular target: PKA (Homo sapiens, UniProt P17612)
# Protocol: as §1
# [12] = molecular target: PKBb (Homo sapiens, UniProt P31751)
# Protocol: as §1
# [13] = molecular target: ROCK 2 (Homo sapiens, UniProt O75116)
# Protocol: as §1
# [14] = molecular target: GSK3b (Homo sapiens, UniProt P49841)
# Protocol: as §1
# [15] = molecular target: PAK2 (Homo sapiens, UniProt Q13177)
# Protocol: as §1
# [16] = molecular target: MEKK1 (Homo sapiens, UniProt Q13233)
# Protocol: as §1
# [17] = molecular target: Aurora B (Homo sapiens, UniProt Q96GD4)
# Sequence of Aurora B (Q96GD4 whole entry): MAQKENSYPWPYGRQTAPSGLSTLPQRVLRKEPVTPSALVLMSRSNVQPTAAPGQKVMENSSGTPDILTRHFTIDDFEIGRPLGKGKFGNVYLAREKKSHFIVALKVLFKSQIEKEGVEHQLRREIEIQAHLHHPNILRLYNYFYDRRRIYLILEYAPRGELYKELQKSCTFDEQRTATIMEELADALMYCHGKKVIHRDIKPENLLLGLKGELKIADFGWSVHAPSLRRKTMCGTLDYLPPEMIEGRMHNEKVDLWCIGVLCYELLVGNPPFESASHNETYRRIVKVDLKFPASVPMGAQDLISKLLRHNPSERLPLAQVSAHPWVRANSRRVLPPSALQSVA
# Protocol: as §1
# [18] = molecular target: CK1γ2 (Homo sapiens, UniProt P78368)
# Sequence of CK1γ2 (P78368 whole entry): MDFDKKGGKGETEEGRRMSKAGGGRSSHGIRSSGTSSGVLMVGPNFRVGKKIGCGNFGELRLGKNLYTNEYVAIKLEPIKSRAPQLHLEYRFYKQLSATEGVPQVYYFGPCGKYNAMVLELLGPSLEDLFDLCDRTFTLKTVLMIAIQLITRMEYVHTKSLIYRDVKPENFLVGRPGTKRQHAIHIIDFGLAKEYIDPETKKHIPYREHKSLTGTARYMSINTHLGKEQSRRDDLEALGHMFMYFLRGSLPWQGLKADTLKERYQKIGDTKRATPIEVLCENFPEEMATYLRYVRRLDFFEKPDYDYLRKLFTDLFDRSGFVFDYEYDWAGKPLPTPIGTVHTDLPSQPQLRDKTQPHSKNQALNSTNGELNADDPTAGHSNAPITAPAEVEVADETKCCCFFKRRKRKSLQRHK
# Protocol: as §1
# [19] = molecular target: MST3 (Homo sapiens, UniProt Q9Y6E0)
# Protocol: as §1
# [20] = molecular target: MARK3 (Homo sapiens, UniProt P27448)
# Protocol: as §1
# [21] = molecular target: DAPK1 (Homo sapiens, UniProt P53355)
# Protocol: as §1
# [22] = molecular target: MST4 (Homo sapiens, UniProt Q9P289)
# Protocol: as §1
# [23] = molecular target: DYRK2 (Homo sapiens, UniProt Q92630)
# Protocol: as §1
# [24] = molecular target: ERK8 (Homo sapiens, UniProt Q8TD08)
# Protocol: as §1
# [25] = molecular target: TGFBR1 (Homo sapiens, UniProt P36897)
# Protocol: as §1
# [26] = molecular target: PIM2 (Homo sapiens, UniProt Q9P1W9)
# Sequence of PIM2 (Q9P1W9 whole entry): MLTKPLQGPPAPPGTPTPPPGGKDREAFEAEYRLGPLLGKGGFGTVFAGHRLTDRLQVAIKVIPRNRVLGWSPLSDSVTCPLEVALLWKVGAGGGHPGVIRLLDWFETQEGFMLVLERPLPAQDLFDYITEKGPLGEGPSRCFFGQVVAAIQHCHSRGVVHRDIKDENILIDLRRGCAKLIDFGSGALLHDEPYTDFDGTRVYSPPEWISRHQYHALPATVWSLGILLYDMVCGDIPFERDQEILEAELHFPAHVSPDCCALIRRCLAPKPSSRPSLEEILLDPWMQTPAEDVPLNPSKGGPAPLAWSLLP
# Protocol: as §1
# [27] = molecular target: CAMKKb (Homo sapiens, UniProt Q96RR4)
# Protocol: as §1
# [28] = molecular target: HER4 (Homo sapiens, UniProt Q15303)
# Protocol: as §1
# [29] = molecular target: MKK2 (Homo sapiens, UniProt P36507)
# Protocol: as §1
# [30] = molecular target: IKKe (Homo sapiens, UniProt Q14164)
# Protocol: as §1
# [31] = molecular target: PAK6 (Homo sapiens, UniProt Q9NQU5)
# Protocol: as §1
# [32] = molecular target: EPH-A2 (Homo sapiens, UniProt P29317)
# Sequence of EPH-A2 (P29317 24-976): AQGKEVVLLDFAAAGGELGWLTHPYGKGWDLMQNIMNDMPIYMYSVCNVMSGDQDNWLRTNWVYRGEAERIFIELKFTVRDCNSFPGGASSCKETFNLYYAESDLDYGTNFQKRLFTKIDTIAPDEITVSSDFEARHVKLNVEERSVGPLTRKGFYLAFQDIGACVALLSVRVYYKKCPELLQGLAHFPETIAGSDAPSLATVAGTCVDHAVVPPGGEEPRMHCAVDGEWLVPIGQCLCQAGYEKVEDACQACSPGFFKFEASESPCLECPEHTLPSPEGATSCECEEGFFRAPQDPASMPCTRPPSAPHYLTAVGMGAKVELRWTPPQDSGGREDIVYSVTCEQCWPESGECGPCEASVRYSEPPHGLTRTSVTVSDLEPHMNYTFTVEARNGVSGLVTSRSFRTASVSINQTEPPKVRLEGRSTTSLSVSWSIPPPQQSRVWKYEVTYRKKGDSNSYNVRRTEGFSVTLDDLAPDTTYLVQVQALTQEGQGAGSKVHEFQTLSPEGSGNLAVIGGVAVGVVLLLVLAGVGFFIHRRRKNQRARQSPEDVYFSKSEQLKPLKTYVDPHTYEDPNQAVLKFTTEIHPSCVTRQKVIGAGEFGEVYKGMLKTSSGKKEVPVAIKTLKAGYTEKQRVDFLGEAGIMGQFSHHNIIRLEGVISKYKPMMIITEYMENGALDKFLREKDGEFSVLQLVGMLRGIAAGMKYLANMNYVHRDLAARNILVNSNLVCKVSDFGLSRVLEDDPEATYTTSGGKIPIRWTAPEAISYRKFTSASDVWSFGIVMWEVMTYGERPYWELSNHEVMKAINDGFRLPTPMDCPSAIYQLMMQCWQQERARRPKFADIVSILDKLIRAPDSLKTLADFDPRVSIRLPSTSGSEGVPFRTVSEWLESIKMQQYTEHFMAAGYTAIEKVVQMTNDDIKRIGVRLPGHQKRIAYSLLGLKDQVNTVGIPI
# Protocol: as §1
# [33] = molecular target: p38a MAPK (Homo sapiens, UniProt Q16539)
# Protocol: as §1
# [34] = molecular target: RSK2 (Homo sapiens, UniProt P51812)
# Sequence of RSK2 (P51812 whole entry): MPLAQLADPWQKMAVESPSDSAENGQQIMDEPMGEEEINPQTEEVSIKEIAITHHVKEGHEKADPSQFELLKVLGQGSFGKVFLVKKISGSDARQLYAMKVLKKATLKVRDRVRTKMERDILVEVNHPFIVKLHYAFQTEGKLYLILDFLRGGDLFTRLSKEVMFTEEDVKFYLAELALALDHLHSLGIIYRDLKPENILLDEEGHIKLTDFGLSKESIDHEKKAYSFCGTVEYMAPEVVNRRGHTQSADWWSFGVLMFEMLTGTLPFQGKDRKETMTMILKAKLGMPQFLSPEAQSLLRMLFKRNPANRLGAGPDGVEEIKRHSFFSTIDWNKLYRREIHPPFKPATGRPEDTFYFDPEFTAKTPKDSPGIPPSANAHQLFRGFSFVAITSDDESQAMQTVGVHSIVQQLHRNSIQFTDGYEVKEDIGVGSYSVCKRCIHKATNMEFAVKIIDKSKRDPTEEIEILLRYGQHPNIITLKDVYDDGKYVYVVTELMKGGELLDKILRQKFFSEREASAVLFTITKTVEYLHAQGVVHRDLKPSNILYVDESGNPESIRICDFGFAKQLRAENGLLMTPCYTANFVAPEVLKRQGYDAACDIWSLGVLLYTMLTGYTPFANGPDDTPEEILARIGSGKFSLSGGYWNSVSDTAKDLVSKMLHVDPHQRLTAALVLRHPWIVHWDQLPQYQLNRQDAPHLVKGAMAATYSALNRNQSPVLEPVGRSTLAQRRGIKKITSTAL
# Protocol: as §1
# [35] = molecular target: IRR (Homo sapiens, UniProt P14616)
# Sequence of IRR (P14616 27-1297): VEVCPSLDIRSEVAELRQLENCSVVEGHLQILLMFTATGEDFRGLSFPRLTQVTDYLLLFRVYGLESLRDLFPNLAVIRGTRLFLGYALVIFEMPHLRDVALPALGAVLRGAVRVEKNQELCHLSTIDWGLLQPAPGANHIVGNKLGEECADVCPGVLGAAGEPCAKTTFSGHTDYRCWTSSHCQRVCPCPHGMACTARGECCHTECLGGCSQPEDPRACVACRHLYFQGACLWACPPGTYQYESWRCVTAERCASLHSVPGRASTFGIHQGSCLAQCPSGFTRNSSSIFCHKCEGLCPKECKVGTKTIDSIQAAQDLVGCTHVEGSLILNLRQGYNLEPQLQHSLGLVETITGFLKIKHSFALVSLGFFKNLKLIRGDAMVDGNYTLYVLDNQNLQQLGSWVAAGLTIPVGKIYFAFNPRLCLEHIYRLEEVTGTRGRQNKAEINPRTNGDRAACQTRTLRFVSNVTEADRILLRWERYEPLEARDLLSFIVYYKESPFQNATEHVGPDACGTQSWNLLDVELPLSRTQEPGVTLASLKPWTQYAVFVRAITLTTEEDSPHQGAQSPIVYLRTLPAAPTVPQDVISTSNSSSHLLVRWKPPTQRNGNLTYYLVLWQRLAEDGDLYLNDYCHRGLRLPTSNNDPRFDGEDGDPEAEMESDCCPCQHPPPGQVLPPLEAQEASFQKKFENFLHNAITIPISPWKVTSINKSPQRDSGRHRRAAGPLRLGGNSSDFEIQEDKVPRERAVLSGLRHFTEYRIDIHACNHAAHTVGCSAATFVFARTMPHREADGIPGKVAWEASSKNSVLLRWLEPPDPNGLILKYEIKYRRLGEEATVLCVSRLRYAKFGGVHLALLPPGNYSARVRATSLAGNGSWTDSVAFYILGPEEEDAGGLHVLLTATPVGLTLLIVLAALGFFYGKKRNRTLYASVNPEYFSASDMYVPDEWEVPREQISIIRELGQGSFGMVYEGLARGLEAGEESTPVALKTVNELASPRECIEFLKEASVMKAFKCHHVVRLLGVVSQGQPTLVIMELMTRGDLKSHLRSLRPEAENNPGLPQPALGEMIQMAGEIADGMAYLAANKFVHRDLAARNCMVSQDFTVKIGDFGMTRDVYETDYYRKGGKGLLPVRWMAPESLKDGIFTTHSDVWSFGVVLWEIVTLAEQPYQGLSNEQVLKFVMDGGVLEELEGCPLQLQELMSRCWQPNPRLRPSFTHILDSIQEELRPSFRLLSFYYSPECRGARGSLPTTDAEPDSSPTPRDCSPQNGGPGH
# Protocol: as §1
# [36] = molecular target: ASK1 (Homo sapiens, UniProt Q99683)
# Protocol: as §1
# [37] = molecular target: MARK2 (Homo sapiens, UniProt Q7KZI7)
# Protocol: as §1
# [38] = molecular target: S6K1 (Homo sapiens, UniProt P23443)
# Protocol: as §1
# [39] = molecular target: p38g MAPK (Homo sapiens, UniProt P53778)
# Protocol: as §1
# [40] = molecular target: PAK5 (Homo sapiens, UniProt Q9P286)
# Protocol: as §1
# [41] = molecular target: HIPK1 (Homo sapiens, UniProt Q86Z02)
# Protocol: as §1
# [42] = 1 μM, cross-referenced with screen data of ref 37, read-out: activity remaining after treatment
smiles,measurement,setting,value
"CC1=C(C#N)C(c2ccc3c(c2)c(NC(=O)c2ccccc2C)nn3C)C(C#N)=C(C)N1 [BAY-974, N-[5-(3,5-dicyano-2,6-dimethyl-1,4-dihydropyridin-4-yl)-1-methylindazol-3-yl]-2-methylbenzamide]",remaining activity at 0.1 µM,[1],85%
same,remaining activity at 0.1 µM,[2],89%
same,remaining activity at 0.1 µM,[3],106%
same,remaining activity at 0.1 µM,[4],104%
same,Kinase activity remaining (%),[5],95%
same,remaining activity at 0.1 µM,[6],70%
same,remaining activity at 0.1 µM,[7],116%
same,remaining activity at 0.1 µM,[8],79%
same,remaining activity at 0.1 µM,[9],103%
same,remaining activity at 0.1 µM,[10],108%
same,remaining activity at 0.1 µM,[11],103%
same,remaining activity at 0.1 µM,[12],99%
same,remaining activity at 0.1 µM,[13],98%
same,remaining activity at 0.1 µM,[14],93%
same,remaining activity at 0.1 µM,[15],88%
same,remaining activity at 0.1 µM,[16],99%
same,remaining activity at 0.1 µM,[17],62%
same,remaining activity at 0.1 µM,[18],112%
same,remaining activity at 0.1 µM,[19],89%
same,remaining activity at 0.1 µM,[20],80%
same,remaining activity at 0.1 µM,[21],109%
same,remaining activity at 0.1 µM,[22],98%
same,remaining activity at 0.1 µM,[23],79%
same,remaining activity at 0.1 µM,[24],91%
same,remaining activity at 0.1 µM,[25],113%
same,remaining activity at 0.1 µM,[26],113%
same,remaining activity at 0.1 µM,[27],107%
same,remaining activity at 0.1 µM,[28],93%
same,remaining activity at 0.1 µM,[29],95%
same,remaining activity at 0.1 µM,[30],101%
same,remaining activity at 0.1 µM,[31],102%
same,remaining activity at 0.1 µM,[32],109%
same,remaining activity at 0.1 µM,[33],108%
same,remaining activity at 0.1 µM,[34],117%
same,remaining activity at 0.1 µM,[35],88%
same,remaining activity at 0.1 µM,[36],83%
same,remaining activity at 0.1 µM,[37],87%
same,remaining activity at 0.1 µM,[38],97%
same,remaining activity at 0.1 µM,[39],95%
same,remaining activity at 0.1 µM,[40],82%
same,remaining activity at 0.1 µM,[41],91%
"CCc1ccccc1C(=O)Nc1n[nH]c2c(C)c(F)c(C3C(C#N)=C(C)N(C)C(C)=C3C#N)cc12 [BAY-3827, N-[5-(3,5-dicyano-1,2,6-trimethyl-4H-pyridin-4-yl)-6-fluoro-7-methyl-1H-indazol-3-yl]-2-ethylbenzamide]",remaining activity at 0.1 µM,[1],102%
same,remaining activity at 0.1 µM,[2],97%
same,remaining activity at 0.1 µM,[3],90%
same,remaining activity at 0.1 µM,[4],105%
same,Kinase activity remaining (%),[5],89%
same,remaining activity at 0.1 µM,[6],80%
same,remaining activity at 0.1 µM,[7],109%
same,remaining activity at 0.1 µM,[8],74%
same,remaining activity at 0.1 µM,[9],105%
same,remaining activity at 0.1 µM,[10],121%
same,remaining activity at 0.1 µM,[11],94%
same,remaining activity at 0.1 µM,[12],93%
same,remaining activity at 0.1 µM,[13],83%
same,remaining activity at 0.1 µM,[14],74%
same,remaining activity at 0.1 µM,[15],88%
same,remaining activity at 0.1 µM,[16],97%
same,inhibition at 0.1 µM,[17],~60%
same,remaining activity at 0.1 µM,[17],≤ 50%
same,remaining activity at 0.1 µM,[18],95%
same,remaining activity at 0.1 µM,[19],≤ 50%
same,remaining activity at 0.1 µM,[20],98%
same,remaining activity at 0.1 µM,[21],94%
same,remaining activity at 0.1 µM,[22],64%
same,remaining activity at 0.1 µM,[23],89%
same,remaining activity at 0.1 µM,[24],66%
same,remaining activity at 0.1 µM,[25],86%
same,remaining activity at 0.1 µM,[26],112%
same,remaining activity at 1 µM,[26]; [42],≥ 99%
same,remaining activity at 0.1 µM,[27],97%
same,remaining activity at 0.1 µM,[28],135%
same,remaining activity at 0.1 µM,[29],97%
same,remaining activity at 0.1 µM,[30],85%
same,remaining activity at 0.1 µM,[31],106%
same,remaining activity at 0.1 µM,[32],114%
same,remaining activity at 0.1 µM,[33],97%
same,remaining activity at 0.1 µM,[34],90%
same,remaining activity at 1 µM,[34]; [42],≤ 50%
same,remaining activity at 0.1 µM,[35],89%
same,remaining activity at 0.1 µM,[36],95%
same,remaining activity at 0.1 µM,[37],77%
same,remaining activity at 0.1 µM,[38],87%
same,remaining activity at 0.1 µM,[39],90%
same,remaining activity at 0.1 µM,[40],100%
same,remaining activity at 0.1 µM,[41],94%
